Like-named read-outs stand apart in the source and are kept apart here.
Key:
[1] = target: T1, human glucocorticoid receptor (Homo sapiens, UniProt P04150); experiment: Glucocorticoid Receptor Binding Assay (I), fluorescence polarization competitor kit (Fluormone GS Red); conditions: purified human recombinant full-length GR 2 nM, 1 nM Fluormone GS Red, FP; read-out: GR (Ki, nM) (GR Binding Assay (I))
T1 construct: purified human recombinant full-length glucocorticoid receptor (2 nM); purchased Invitrogen Part #2893
T1 sequence (P04150 1-777): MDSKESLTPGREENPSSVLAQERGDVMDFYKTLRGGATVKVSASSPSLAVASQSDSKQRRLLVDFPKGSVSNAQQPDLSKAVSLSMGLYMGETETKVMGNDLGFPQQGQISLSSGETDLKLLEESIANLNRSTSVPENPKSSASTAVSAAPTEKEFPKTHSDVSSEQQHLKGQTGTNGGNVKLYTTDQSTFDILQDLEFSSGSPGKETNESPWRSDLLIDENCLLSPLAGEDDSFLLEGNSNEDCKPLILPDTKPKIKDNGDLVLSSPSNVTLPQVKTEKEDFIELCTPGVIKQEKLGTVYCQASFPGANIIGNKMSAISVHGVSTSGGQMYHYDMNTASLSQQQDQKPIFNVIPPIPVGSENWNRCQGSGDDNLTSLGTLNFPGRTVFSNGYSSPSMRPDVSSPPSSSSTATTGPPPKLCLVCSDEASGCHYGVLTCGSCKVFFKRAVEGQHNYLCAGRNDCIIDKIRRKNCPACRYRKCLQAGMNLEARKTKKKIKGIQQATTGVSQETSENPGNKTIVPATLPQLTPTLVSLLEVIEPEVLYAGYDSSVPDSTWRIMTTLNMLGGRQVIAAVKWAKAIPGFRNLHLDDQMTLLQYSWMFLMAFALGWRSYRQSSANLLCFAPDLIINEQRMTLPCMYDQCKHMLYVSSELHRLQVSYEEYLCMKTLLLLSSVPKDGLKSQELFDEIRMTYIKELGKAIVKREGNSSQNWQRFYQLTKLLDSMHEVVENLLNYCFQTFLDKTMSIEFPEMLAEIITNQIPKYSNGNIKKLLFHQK
Description: Briefly, purified human recombinant full-length glucocorticoid receptor (2 nM) was mixed with fluorescently labeled glucocorticoid (1 nM Fluormone GS Red) in the presence or absence of test compound. After two hour incubation at room temperature in the dark, the fluorescence polarization (FP) of the samples was measured. […] Test compounds were analyzed in the concentration range from 8.5E-05 μM to 5 μM.

[2] = test system: AP-1 induced transcriptional activity; experiment: Cellular Transrepressional Assay (AP-1 luciferase reporter in A549 cells, PMA-activated); format: cell-based; conditions: A549 cells with 7x AP-1 luciferase reporter, 10 ng/ml PMA, read-out: AP-1 (EC50, nM) (Cellular Transrepression Assay)
Description: To measure the ability of test molecules to inhibit AP-1 induced transcriptional activity an A549 cell was utilized which was stably transfected with a plasmid containing 7× AP-1 DNA binding sites (pAP-1-Luc plasmid, Stratagene Co. La Jolla, Calif.) followed by the gene for luciferase. Cells were activated with 10 ng/ml of […] (PMA) plus or minus test molecules for 7 hours. After 7 hours a luciferase reagent was added to measure luciferase enzymatic activity in the cell. After a 10 minute incubation of luciferase reagent with cells, luminescence was measured in a TopCount luminescence counter. Repression of AP-1 activity was calculated as the percentage decrease in the signal induced by PMA alone. Test molecules were analyzed in the concentration range from 0.1 nM to 40 μM. EC50s were determined by using standard curve fitting methods such as Excel fit (Microsoft Co.).

| Compound | Ki [1] [nM] | EC50 ([2]; Homo sapiens, A549, 7 h) [nM] | EC50 ([2]; 7 hours) [nM] |
| --- | --- | --- | --- |
| CC(C)(C(=O)NCCC(F)(F)F)C(c1ccccc1)c1ccc2c(cnn2-c2ccc(F)cc2)c1 (stereo not shown) [Example 9, 3-(1-(4-fluorophenyl)-1H-indazol-5-yl)-2,2-dimethyl-3-phenyl-N-(3,3,3-trifluoropropyl)-propanamide] | 3.7 | 3060 | – |
| CC(C)(C(=O)Nc1nncs1)C(c1ccccc1)c1ccc2c(cnn2CCCO)c1 (stereo not shown) [Example 75, 3-(1-(3-hydroxypropyl)-1H-indazol-5-yl)-2,2-dimethyl-3-phenyl-N-(1,3,4-thiadiazol-2-yl)propanamide] | 17 | 1020 | – |
| CC(C)(C(=O)Nc1nncs1)C(c1ccccc1)c1ccc2c(cnn2-c2ccc(F)cc2C(F)(F)F)c1 (stereo not shown) [Example 92, 3-(1-(4-fluoro-2-(trifluoromethyl)phenyl)-1H-indazol-5-yl)-2,2-dimethyl-3-phenyl-N-(1,3,4-thiadiazol-2-yl)proponamide] | 110 | > 10000 | – |
| CC(C)(C(=O)Nc1nccs1)C(c1ccccc1)c1ccc2c(-c3ccccc3)n[nH]c2c1 (stereo not shown) [Example 112, 2,2-Dimethyl-3-phenyl-3-(3-phenyl-1H-indazol-6-yl)-N-(thiazol-2-yl)propanamide] | 13 | 2410 | – |
| CC(C)(C(=O)Nc1nncs1)C(c1ccccc1)c1ccc2nn(Cc3ccccc3)cc2c1 (stereo not shown) [Example 73, 3-(2-benzyl-2H-indazol-5-yl)-2,2-dimethyl-3-phenyl-N-(1,3,4-thiadiazol-2-yl)propanamide] | 46 | > 10000 | – |
| CC(C)(C(=O)Nc1nnc(C(F)(F)F)s1)C(c1ccccc1)c1ccc2c(cnn2-c2ccc(F)cc2)c1 (stereo not shown) [Example 25, 3-(1-(4-fluorophenyl)-1H-indazol-5-yl)-2,2-dimethyl-3-phenyl-N-(5-(trifluoromethyl)-1,3,4-thiadiazol-2-yl)propanamide] | 19 | > 10000 | – |
| CCOC(=O)Cc1csc(NC(=O)C(C)(C)C(c2ccccc2)c2ccc3c(cnn3-c3ccc(F)cc3)c2)n1 (stereo not shown) [Example 28, ethyl 2-(2-(3-(1-(4-fluorophenyl)-1H-indazol-5-yl)-2,2-dimethyl-3-phenylpropanamido)thiazol-4-yl)acetate] | 20 | 647 | – |
| CC(C)(C(=O)Nc1nccs1)C(c1ccccc1)c1ccc2[nH]c(-c3ccccn3)cc2c1 (single isomer, unassigned) [111-enant B, 2,2-Dimethyl-3-phenyl-3-(2-(pyridin-2-yl)-1H-indol-5-yl)-N-(thiazol-2-yl)propanamide] | 25 | – | 777 |
| CC(C)(C(=O)Nc1nccs1)C(c1ccccc1)c1ccc2c(cnn2CS(C)(=O)=O)c1 (stereo not shown) [Example 60, 2,2-dimethyl-3-(1-(methylsulfonylmethyl)-1H-indazol-5-yl)-3-phenyl-N-(thiazol-2-yl)propanamide] | 29 | > 10000 | – |
| CCC(c1ccc2c(cnn2-c2ccc(F)cc2)c1)C(C)(C)C(=O)Nc1nccs1 (stereo not shown) [Example 39, 3-(1-(4-Fluorophenyl)-1H-indazol-5-yl)-2,2-dimethyl-N-(thiazol-2-yl)pentanamide] | 9.8 | 87 | – |
| CSc1nnc(NC(=O)C(C)(C)C(c2ccccc2)c2ccc3c(cnn3-c3ccc(F)cc3)c2)s1 (stereo not shown) [Example 22, 3-(1-(4-fluorophenyl)-1H-indazol-5-yl)-2,2-dimethyl-N-(5-(methylthio)-1,3,4-thiadiazol-2-yl)-3-phenylpropanamide] | 29 | 840 | – |
| CCOC(=O)c1csc(NC(=O)C(C)(C)C(c2ccccc2)c2ccc3c(cnn3-c3ccc(F)cc3)c2)n1 (stereo not shown) [Example 27, ethyl 2-(3-(1-(4-fluorophenyl)-1H-indazol-5-yl)-2,2-dimethyl-3-phenylpropanamido)thiazol-4-carboxylate] | 23 | 1310 | – |
| CC(C)(C(=O)Nc1nccs1)C(c1ccccc1)c1ccc2c(cnn2-c2ccccn2)c1 (stereo not shown) [Example 79, 2,2-dimethyl-3-phenyl-3-(1-(pyridin-2-yl)-1H-indazol-5-yl)-N-(thiazol-2-yl)propanamide] | 10 | 2480 | – |
| CC(C)(C(=O)Nc1nc[nH]n1)C(c1ccccc1)c1ccc2c(cnn2-c2ccc(F)cc2)c1 (stereo not shown) [Example 13, 3-(1-(4-fluorophenyl)-1H-indazol-5-yl)-2,2-dimethyl-3-phenyl-N-(1H-1,2,4-triazol-3-yl)propanamide] | 11 | 17 | – |
| O=C(CC(c1ccccc1)c1ccc2c(cnn2-c2ccc(F)cc2)c1)Nc1nncs1 (single isomer, unassigned) [136-enant A, 3-(1-(4-Fluorophenyl)-1H-indazol-5-yl)-3-phenyl-N-(1,3,4-thiadiazol-2-yl)propanamide] | 23 | – | > 10000 |
| Cn1ccc(NC(=O)C(C)(C)C(c2ccccc2)c2ccc3c(cnn3-c3ccc(F)cc3)c2)n1 (stereo not shown) [Example 4, 3-(1-(4-fluorophenyl)-1H-indazol-5-yl)-2,2-dimethyl-N-(1-methyl-1H-pyrazol-3-yl)-3-phenylpropanamide] | 7 | 12 | – |
| CC(C)(C(=O)Nc1nncs1)C(c1ccccc1)c1ccc2c(cnn2-c2ccccc2)c1 (stereo not shown) [Example 87, 2,2-dimethyl-3-phenyl-3-(1-phenyl-1H-indazol-5-yl)-N-(1,3,4-thiadiazol-2-yl)propanamide] | 5 | 20 | – |
| CC(C)(C(=O)Nc1nccs1)C(c1ccccc1)c1ccc2[nH]ccc2c1 (stereo not shown) [Example 107, 3-(1H-Indol-5-yl)-2,2-dimethyl-3-phenyl-N-(thiazol-2-yl)propanamide] | 7.8 | 193 | – |
| CC(C)(C(=O)Nc1nncs1)C(C)(C)c1ccc2c(cnn2-c2ccc(F)cc2)c1 [Example 120, 3-(1-(4-fluorophenyl)-1H-indazol-5-yl)-2,2,3-trimethyl-N-(1,3,4-thiadiazol-2-yl)butanamide] | 5.8 | 74 | – |
| CC(C)(C(=O)Nc1nccs1)C(c1cc[n+]([O-])cc1)c1ccc2c(cnn2-c2ccc(F)cc2)c1 (stereo not shown) [Example 37, 3-(1-(4-Fluorophenyl)-1H-indazol-5-yl)-2,2-dimethyl-3-(pyridin-4-N-oxide-yl)-N-(thiazol-2-yl)propanamide] | 301 | 3350 | – |
| CC(C)n1ncc2cc(C(c3ccccc3)C(C)(C)C(=O)Nc3nccs3)ccc21 (stereo not shown) [Example 61, 3-(1-isopropyl-1H-indazol-5-yl)-2,2-dimethyl-3-phenyl-N-(thiazol-2-yl)propanamide] | 14 | 158 | – |
| CC(C)(C(=O)NCC(F)(F)F)C(c1ccccc1)c1ccc2c(cnn2-c2ccc(F)cc2)c1 (stereo not shown) [Example 8, 3-(1-(4-fluorophenyl)-1H-indazol-5-yl)-2,2-dimethyl-3-phenyl-N-(2,2,2-trifluoroethyl)prop-anamide] | 3 | 1800 | – |
| CC(C)(C(=O)Nc1nccs1)C(c1ccccc1)c1ccc2[nH]cc(C=O)c2c1 (stereo not shown) [Example 109, 3-(3-Formyl-1H-indol-5-yl)-2,2-dimethyl-3-phenyl-N-(thiazol-2-yl)propanamide] | 59 | > 10000 | – |
| CC(C)(C(=O)Nc1nccs1)C(c1ccc2c(cnn2-c2ccc(F)cc2)c1)C1CCCC1 (stereo not shown) [Example 35, 3-Cyclopentyl-3-(1-(4-fluorophenyl)-1H-indazol-5-yl)-2,2-dimethyl-N-(thiazol-2-yl)propanamide] | 21 | 82 | – |
| CC(C)(C(=O)Nc1ncc(Cl)s1)C(c1ccccc1)c1ccc2c(cnn2-c2ccc(F)cc2)c1 (stereo not shown) [Example 26, N-(5-chlorothiazol-2-yl)-3-(1-(4-fluorophenyl)-1H-indazol-5-yl)-2,2-dimethyl-3-phenylpropanamide] | 16 | 404 | – |
| CC(C)(C(=O)Nc1nncs1)C(c1ccccc1)c1ccc2nn(CCCCO)cc2c1 (stereo not shown) [Example 77, 3-(2-(4-hydroxybutyl)-2H-indazol-5-yl)-2,2-dimethyl-3-phenyl-N-(1,3,4-thiadiazol-2-yl)propanamide] | 23 | 951 | – |

From US8067447B2, “Modulators of glucocorticoid receptor, AP-1, and/or NF-κB activity and use thereof” (Bristol-Myers Squibb Company, priority 2006, dated 2011)
